Laboratory results published in article PMC10374108, “Structural and biochemical characterization of the key components of an auxin degradation operon from the rhizosphere bacterium Variovorax” (PLOS Biology, 2023).
“And” between values parts separate entries of the source, which are not always exact repeats. Equal values may be shown once. “Also recorded” adds a separate entry of the source.

What was measured:
IadJ = IadJ (Variovorax paradoxus, UniProt A0A0H2M0A9); experiment: ITC, IAA binding to IadJ; set-up: species or system Variovorax paradoxus CL14
Protocol: (§1) ITC experiments were performed using a MicroCal PEAQ-ITC system (Malvern). All the experiments were performed at […] in a buffer containing 25 mM Tris-HCl (pH 7.5) and 150 mM NaCl (unless otherwise stated). […] Data was analyzed using the MicroCal PEAQ-ITC analysis software. All the measurements were repeated at least 2 times.

IadK2 mutants [1] = experiment: Thermal shift assay (TSA), IadK2 mutants and IAA; format: binding, Variovorax paradoxus CL14; set-up: unit not given here; conditions: replicates
Protocol: (§2) Ligands concentrations were tested at 2- to […] excess (10 to 1,000 μM) relative to the proteins (5 μM). The fluorescence dye SYPRO Orange at a final of 200-fold dilution was used to monitor the unfolding of proteins. The protein and ligand were incubated for 10 min at room temperature before the addition of SYPRO Orange dye. The QuantStudio 1 Plus real-time PCR system (Thermo Fisher) was used to control the temperature increasing from […] to […] with an increment of […] and to monitor the fluorescence (excitation: 520 ± 10 nm and emission: 558 ± 10 nm). Each tested group was run in triplicate and repeated. Data was imported to the Protein Thermal Shift software for analysis and plotting.

IadK2 mutants [2] = target: IadK2 mutants (Variovorax paradoxus, UniProt T1X8R6, W172A); experiment: ITC, IAA binding to IadK2 mutants; set-up: species or system Variovorax paradoxus CL14; conditions: IadK2 mutant W172A, replicates
Protocol: as §1

IadK2 mutants [3] = target: IadK2 mutants (Variovorax paradoxus, UniProt T1X8R6, R199A); experiment: ITC, IAA binding to IadK2 mutants; set-up: species or system Variovorax paradoxus CL14; conditions: Kd
Protocol: as §1

IadK2 mutants [4] = target: IadK2 mutants (Variovorax paradoxus, UniProt T1X8R6, S104V); experiment: ITC, IAA binding to IadK2 mutants; set-up: species or system Variovorax paradoxus CL14; conditions: Kd
Protocol: as §1

IadK2 mutants [5] = target: IadK2 mutants (Variovorax paradoxus, UniProt T1X8R6, S104V/W172L); experiment: ITC, IAA binding to IadK2 mutants; set-up: species or system Variovorax paradoxus CL14
Protocol: as §1

IadK2 mutants [6] = target: IadK2 mutants (Variovorax paradoxus, UniProt T1X8R6, Y311A); experiment: ITC, IAA binding to IadK2 mutants; set-up: species or system Variovorax paradoxus CL14; conditions: Kd
Protocol: as §1

IadK2 mutants [7] = experiment: ITC, IAA binding to IadK2 mutants; set-up: species or system Variovorax paradoxus CL14; conditions: IadK2 mutant W172L, replicates
Protocol: as §1

IadI = IadI (Variovorax paradoxus, UniProt A0A0H2M433); experiment: ITC, IAA binding to IadI; set-up: species or system Variovorax paradoxus CL14
Protocol: as §1

IadK2 = experiment: Thermal shift assay (TSA), IadK2 with IAA and analogs; format: binding, Variovorax paradoxus CL14
Protocol: as §2

IadK3 [8] = target: IadK3 (Variovorax paradoxus, UniProt A0A0H2LZ84); experiment: ITC, auxins binding to IadK3; set-up: species or system Variovorax paradoxus CL14
Protocol: as §1

IadC = target: T1, IadC (Variovorax paradoxus, UniProt C5CSP5); experiment: ITC, IAA binding to IadC; set-up: species or system Variovorax paradoxus CL14
T1 sequence (C5CSP5 1-330): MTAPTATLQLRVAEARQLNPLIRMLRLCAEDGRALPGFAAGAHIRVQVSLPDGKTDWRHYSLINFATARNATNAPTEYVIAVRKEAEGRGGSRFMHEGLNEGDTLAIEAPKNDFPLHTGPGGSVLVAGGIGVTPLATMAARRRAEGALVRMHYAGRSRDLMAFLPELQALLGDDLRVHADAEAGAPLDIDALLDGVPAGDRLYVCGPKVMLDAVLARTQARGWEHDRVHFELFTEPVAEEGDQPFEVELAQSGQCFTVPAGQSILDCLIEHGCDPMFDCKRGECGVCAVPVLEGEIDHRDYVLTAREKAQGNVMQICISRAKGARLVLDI
Protocol: as §1

IadG = experiment: ITC, IAA binding to IadG; set-up: species or system Variovorax paradoxus CL14
Protocol: as §1

IadH = IadH (Variovorax paradoxus, UniProt A0A0H2LZB5); experiment: ITC, IAA binding to IadH; set-up: species or system Variovorax paradoxus CL14
Protocol: as §1

IadK3 [9] = experiment: Thermal shift assay (TSA), IadK3 with IAA and analogs; format: binding, Variovorax paradoxus CL14; conditions: IadK3 with IAA, replicates
Protocol: as §2

IadF = IadF (Variovorax paradoxus, UniProt A0A0H2MF82); experiment: ITC, IAA binding to IadF; set-up: species or system Variovorax paradoxus CL14
Protocol: as §1

Iad proteins = experiment: Thermal shift assay (TSA), other Iad proteins with IAA; format: binding, Variovorax paradoxus CL14; conditions: for ΔTm: replicates
Protocol: as §2

MarR = target: MarR; set-up: method as in Conway et al. 2022; conditions: MarR domains, high affinity IAA binding; ref Conway et al. 2022; cited from earlier work

Sequence of IadK3 (Variovorax paradoxus, UniProt A0A0H2LZ84) (A0A0H2LZ84 entry or part of it): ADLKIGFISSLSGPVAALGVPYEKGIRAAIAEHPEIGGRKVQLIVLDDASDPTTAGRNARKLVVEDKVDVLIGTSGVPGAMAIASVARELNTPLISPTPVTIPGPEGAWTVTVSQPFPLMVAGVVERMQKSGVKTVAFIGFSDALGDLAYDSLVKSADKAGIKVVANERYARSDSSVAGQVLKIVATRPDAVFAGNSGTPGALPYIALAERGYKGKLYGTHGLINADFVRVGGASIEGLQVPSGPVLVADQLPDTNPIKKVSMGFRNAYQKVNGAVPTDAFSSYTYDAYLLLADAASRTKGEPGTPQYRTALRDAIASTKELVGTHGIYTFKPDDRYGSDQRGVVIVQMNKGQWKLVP
Sequence of IadK2 mutants (Variovorax paradoxus, UniProt T1X8R6, S104V) (T1X8R6 entry or part of it S104V): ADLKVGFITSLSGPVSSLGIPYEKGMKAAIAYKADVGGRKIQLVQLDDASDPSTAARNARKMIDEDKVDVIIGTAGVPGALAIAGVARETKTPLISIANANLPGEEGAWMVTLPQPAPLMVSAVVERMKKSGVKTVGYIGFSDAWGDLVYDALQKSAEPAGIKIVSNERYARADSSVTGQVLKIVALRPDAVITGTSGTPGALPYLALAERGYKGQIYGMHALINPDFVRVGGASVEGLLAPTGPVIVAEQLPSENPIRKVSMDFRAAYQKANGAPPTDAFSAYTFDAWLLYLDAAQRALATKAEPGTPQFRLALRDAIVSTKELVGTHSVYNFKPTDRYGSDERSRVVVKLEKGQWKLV
Sequence of IadH (A0A0H2LZB5 entry or part of it): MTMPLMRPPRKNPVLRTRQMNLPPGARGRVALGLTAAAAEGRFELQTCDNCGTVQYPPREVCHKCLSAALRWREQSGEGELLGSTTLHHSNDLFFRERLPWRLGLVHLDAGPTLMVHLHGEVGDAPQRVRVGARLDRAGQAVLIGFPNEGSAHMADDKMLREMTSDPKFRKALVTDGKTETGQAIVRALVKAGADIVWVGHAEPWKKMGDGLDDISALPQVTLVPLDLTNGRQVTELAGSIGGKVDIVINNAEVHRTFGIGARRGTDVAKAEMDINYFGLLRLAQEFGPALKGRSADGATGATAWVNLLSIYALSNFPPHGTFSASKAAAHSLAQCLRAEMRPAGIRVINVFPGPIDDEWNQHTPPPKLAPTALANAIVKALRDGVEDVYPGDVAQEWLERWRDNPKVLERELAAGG
Sequence of IadK2 mutants (Variovorax paradoxus, UniProt T1X8R6, W172A) (T1X8R6 entry or part of it W172A): as the sequence (T1X8R6 entry or part of it S104V) above, with V77S, W145A counted along it
Sequence of IadI (A0A0H2M433 entry or part of it): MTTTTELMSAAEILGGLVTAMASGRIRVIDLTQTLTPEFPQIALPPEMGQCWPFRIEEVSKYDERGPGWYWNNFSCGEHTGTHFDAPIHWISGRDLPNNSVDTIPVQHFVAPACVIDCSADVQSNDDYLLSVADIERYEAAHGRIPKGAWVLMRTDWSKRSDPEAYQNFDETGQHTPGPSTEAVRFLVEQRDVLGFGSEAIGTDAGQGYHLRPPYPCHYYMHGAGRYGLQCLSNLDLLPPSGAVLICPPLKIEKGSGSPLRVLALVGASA
Sequence of IadF (A0A0H2MF82 entry or part of it): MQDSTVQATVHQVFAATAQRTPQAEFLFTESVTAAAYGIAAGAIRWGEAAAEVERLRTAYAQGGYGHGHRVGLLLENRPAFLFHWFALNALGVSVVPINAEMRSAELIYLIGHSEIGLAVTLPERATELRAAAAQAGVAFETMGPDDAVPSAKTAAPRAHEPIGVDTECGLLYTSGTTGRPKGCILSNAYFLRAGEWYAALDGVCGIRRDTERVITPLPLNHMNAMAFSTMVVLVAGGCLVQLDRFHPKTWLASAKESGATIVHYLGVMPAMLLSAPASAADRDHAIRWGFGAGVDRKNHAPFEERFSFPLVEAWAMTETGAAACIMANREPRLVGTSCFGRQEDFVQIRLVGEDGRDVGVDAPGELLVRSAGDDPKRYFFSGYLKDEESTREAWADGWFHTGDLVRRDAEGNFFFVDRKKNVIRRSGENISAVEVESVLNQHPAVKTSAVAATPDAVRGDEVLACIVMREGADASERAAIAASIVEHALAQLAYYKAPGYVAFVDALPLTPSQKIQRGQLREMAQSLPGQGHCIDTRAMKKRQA
Sequence of IadK2 mutants (Variovorax paradoxus, UniProt T1X8R6, R199A) (T1X8R6 entry or part of it R199A): as the sequence (T1X8R6 entry or part of it S104V) above, with V77S, R172A counted along it
Sequence of IadK2 mutants (Variovorax paradoxus, UniProt T1X8R6, Y311A) (T1X8R6 entry or part of it Y311A): as the sequence (T1X8R6 entry or part of it S104V) above, with V77S, Y284A counted along it
Sequence of IadK2 mutants (Variovorax paradoxus, UniProt T1X8R6, S104V/W172L) (T1X8R6 entry or part of it S104V/W172L): as the sequence (T1X8R6 entry or part of it S104V) above, with W145L counted along it
Sequence of IadJ (A0A0H2M0A9 entry or part of it): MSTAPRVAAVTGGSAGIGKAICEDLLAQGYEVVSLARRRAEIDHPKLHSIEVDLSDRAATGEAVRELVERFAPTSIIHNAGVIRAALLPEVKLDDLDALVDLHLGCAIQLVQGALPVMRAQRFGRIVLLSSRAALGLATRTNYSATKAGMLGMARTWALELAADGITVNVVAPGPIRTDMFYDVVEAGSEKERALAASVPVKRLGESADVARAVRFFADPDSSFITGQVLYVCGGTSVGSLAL

SMILES: O=C(O)Cc1c[nH]c2ccccc12 [IAA, indole-3-acetic acid]
- IAA binding (ITC) (IadJ): no binding detected
- Kd (IadJ; ITC, replicates): > 100 µM
- Tm change with IAA (TSA) (IadK2 mutants [1]; IadK2 A125G): 2.99 and 2.492 and 3.488
- Tm change with IAA (TSA) (IadK2 mutants [1]; IadK2 A125T/N126P): 1.993 and 1.495 (2×)
- Tm change with IAA (TSA) (IadK2 mutants [1]; IadK2 A249G): 3.986 and 4.485 and 5.4814
- Tm change with IAA (TSA) (IadK2 mutants [1]; IadK2 F168G): 0.4983
- Tm change with IAA (TSA) (IadK2 mutants [1]; IadK2 F308G): 1.495
- Tm change with IAA (TSA) (IadK2 mutants [1]; IadK2 H248G): 2.492 (2×) and 3.488
- Tm change with IAA (TSA) (IadK2 mutants [1]; IadK2 N126A): 3.488 (2×) and 2.99
- Tm change with IAA (TSA) (IadK2 mutants [1]; IadK2 R199A): 0.4983 and 0 (2×)
- Tm change with IAA (TSA) (IadK2 mutants [1]; IadK2 S014V/W172L): 0
- Tm change with IAA (TSA) (IadK2 mutants [1]; IadK2 S104A): 2.99 and 2.492 and 3.488
- Tm change with IAA (TSA) (IadK2 mutants [1]; IadK2 S104V): 2.492 and 1.495 and 1.993
- Tm change with IAA (TSA) (IadK2 mutants [1]; IadK2 S224A): 2.99 and 3.986 (2×)
- Tm change with IAA (TSA) (IadK2 mutants [1]; IadK2 W172A): 0.4983 and 0 (2×)
- Tm change with IAA (TSA) (IadK2 mutants [1]; IadK2 W172L): 0
- Tm change with IAA (TSA) (IadK2 mutants [1]; IadK2 Y311A): 0
- Kd (IadK2 mutants [2]): > 100 µM
- Kd (IadK2 mutants [2]; Kd): > 100 µM
- Kd (IadK2 mutants [3]; IadK2 R199A, IAA, mean ± SD): 11.2 ± 1.8 µM
- Kd (IadK2 mutants [3]; IadK2 mutant R199A, replicates): 9.5 µM and 10.4 µM
- Kd (IadK2 mutants [4]; IadK2 S104V, IAA, mean ± SD): 1.1 ± 0.3 µM
- Kd (IadK2 mutants [4]; IadK2 mutant S104V, replicates): 0.88 µM and 0.9 µM and 1.5 µM
- Kd (IadK2 mutants [5]; IadK2 mutant W172L/S104V, replicates): > 100 µM
- Kd (IadK2 mutants [5]; Kd, IadK2 W172L/S104V, IAA): > 100 µM
- Kd (IadK2 mutants [5]; Kd, IadK2 mutant W172L/S104V, replicates): > 100 µM
- Kd (IadK2 mutants [6]; IadK2 Y311A, IAA, mean ± SD): 21 ± 3 µM
- Kd (IadK2 mutants [6]; IadK2 mutant Y311A, replicates): 17 µM and 24 µM and 22 µM
- Kd (IadK2 mutants [7]): weak binding
- IAA binding (ITC) (IadI): no binding detected
- Kd (IadI; ITC, replicates): > 100 µM
- Tm change with IAA (TSA) (IadK2; IadK2 WT, replicates, Fig 2E): 5.98
- ΔTm (IadK2; IadK2 with IAA, replicates): 5.98 °C
- stabilization of IadK2 (melting temperature, TSA) (IadK2; result in words): substantially increased the melting temperature; also recorded: most significant stabilization effect
- Kd (IadK3 [8]; IadK3, ITC, replicates, read-out: ITC binding): > 100 µM
- binding to IadK3 (ITC) (IadK3 [8]; result in words): no obvious binding
- IAA binding (ITC) (IadC): no binding detected
- Kd (IadC; ITC, replicates): > 100 µM
- IAA binding (ITC) (IadG): no binding detected
- Kd (IadG; ITC, replicates): > 100 µM
- IAA binding (ITC) (IadH): no binding detected
- Kd (IadH; ITC, replicates): > 100 µM
- ΔTm (IadK3 [9]): 0.997 °C and -0.4983 °C and -0.9966 °C
- IAA binding (ITC) (IadF): no binding detected
- Kd (IadF; ITC, replicates): > 100 µM
- effect on melting temperature (TSA) (Iad proteins; Iad proteins other than IadK2, result in words): no profound effects
- ΔTm (Iad proteins; IadC with IAA): -0.4983 °C and 0.9966 °C and 0 °C
- ΔTm (Iad proteins; IadF with IAA): 0.4983 °C and -0.9966 °C and 0 °C
- ΔTm (Iad proteins; IadG with IAA): 1.495 °C (2×) and 1.993 °C
- ΔTm (Iad proteins; IadH with IAA): 0.9966 °C and 0 °C and -0.4983 °C
- ΔTm (Iad proteins; IadI with IAA): 0.4983 °C and -0.4983 °C and -1.993 °C
- ΔTm (Iad proteins; IadJ with IAA): 0 °C and 0.4983 °C and 1.495 °C
- Kd (MarR): ~0.3 µM
